Test results taken from patent US20220153734A1, “Pyrazolopyridine Compounds For IRE1 Inhibition” (Optikira, LLC, priority 2019, published 2022).

Key:
IRE1α [1] = molecular target: T1, IRE1α (Homo sapiens, UniProt O75460); assay: Biochemical assay to detect inhibition of kinase activity of IRE1α (ADP-Glo)
T1 construct: purchased Signal Chem E31-11G
Method: Biochemical Assays to Detect Inhibition of Kinase Activity of IRE1α
The kinase reactions were performed in 384 well white ProxiPlate-384 Plus plates (PERKIN Elmer 6008280) using 25 mM MOPS assay buffer with 1 mM dithiothreitol, 25 mM MgCl2, 12.5 mM β-glycerophosphate, 5 mM EGTA, and 50 μg/mL BSA. Test compounds were prepared on the day of assay and dispensed using D300 digital dispenser as a 10-point ½ log dilution series in duplicate, normalized to a final DMSO concentration of 3%. Test compounds were pre-incubated for 30 min at room temperature with 10 nM IRE1α kinase (E31-11G from Signal Chem) in 2.5 μL of assay buffer and the reaction started by addition of 2.5 μL of ATP in assay buffer, to give a final ATP concentration of 100 μM and 5 nM IRE1α kinase. After 4 hours incubation at room temperature the reactions were stopped and the kinase activity determined using the ADP-Glo™ reagent from Promega, according to the manufacturer's instructions. Luminescence was measured on a luminometer (EnVision, PerkinElmer) and IC50 values calculated by fitting a sigmoidal curve to percent inhibition of control versus Log10 of compound concentration.

[2] = test system: ARPE-19 cells stably expressing XBP1 (a.a. 1-376); assay: Cellular XBP1 splicing assay (NanoLuc luciferase, thapsigargin); assay type: cell-based; conditions: thapsigargin 150 nM
Procedure, shortened: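 ARPE-19 cells carrying an XBP1(1-376)-NanoLuc splicing reporter were pretreated with compound (10-point ½-log series, 0.117% DMSO) for 30 min, then stressed with 150 nM thapsigargin for 4 h at 37° C. Luminescence was read, and IC50 values came from sigmoidal fits of percent inhibition of control.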

IRE1α [3] = molecular target: T1, IRE1α; assay: Biochemical assay: inhibition of RNase activity of IRE1α; conditions: enzyme 0.325 nM, substrate 100 nM, 20 minutes
Procedure, shortened: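 RNase cleavage monitored as dequenching of a 5′ Alexa Fluor 647/3′ quencher RNA oligo (100 nM), stopped with 5 M urea after 20 min at room temperature. Enzyme 0.325 nM, preceded by 30 min compound pre-incubation; buffer Tris/MgCl2/KCl/DTT/Tween, 4% DMSO final. IC50 from curve fit of % inhibition.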

T1 sequence (O75460 468-977 limits assumed): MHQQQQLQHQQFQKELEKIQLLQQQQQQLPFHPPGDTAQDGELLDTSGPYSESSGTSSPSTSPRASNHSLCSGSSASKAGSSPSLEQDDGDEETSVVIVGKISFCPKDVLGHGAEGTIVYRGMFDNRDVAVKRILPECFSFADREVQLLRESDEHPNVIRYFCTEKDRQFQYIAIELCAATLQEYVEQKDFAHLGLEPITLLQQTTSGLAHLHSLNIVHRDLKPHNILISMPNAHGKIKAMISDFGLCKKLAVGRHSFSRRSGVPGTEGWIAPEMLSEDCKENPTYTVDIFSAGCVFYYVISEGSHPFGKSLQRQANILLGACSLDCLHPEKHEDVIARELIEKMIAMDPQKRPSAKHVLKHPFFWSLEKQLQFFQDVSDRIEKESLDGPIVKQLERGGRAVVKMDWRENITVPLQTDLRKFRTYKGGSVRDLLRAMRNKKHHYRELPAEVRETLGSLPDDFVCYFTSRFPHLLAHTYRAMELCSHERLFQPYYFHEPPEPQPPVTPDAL

| Structure (SMILES) | IC50 (IRE1α [1]) | IC50 ([2]; 4 hour) | IC50 (IRE1α [3]) | IC50 ([2]; Homo sapiens, ARPE-19, 4 h) |
| --- | --- | --- | --- | --- |
| CC(C)n1nc(-c2cc(F)c(NS(=O)(=O)c3ccccc3F)cc2F)c2c(N)ncc([C@H]3CC[C@H](N(C)C4COC4)CC3)c21 [Compound A38] |  |  | 12 nM | 13 nM |
| CC(C)n1nc(-c2ccc(NS(=O)(=O)Cc3ccccc3Cl)c(F)c2)c2c(N)ncc([C@H]3CC[C@H](NC4COC4)CC3)c21 [Compound A39, N-(4-(4-amino-1-isopropyl-7-((1r,4r)-4-(oxetan-3-ylamino)cyclohexyl)-1H-pyrazolo[4,3-c]pyridin-3-yl)-2-fluorophenyl)-1-(2-chlorophenyl)methanesulfonamide] |  |  | 0.3 nM | 1.7 nM |
| CC(C)n1nc(-c2cc(F)c(NS(=O)(=O)c3ccccc3F)cc2F)c2c(N)ncc([C@H]3CC[C@H](N(C)C)CC3)c21 [Compound A40, N-(4-(4-amino-7-((1r,4r)-4-(dimethylamino)cyclohexyl)-1-isopropyl-1H-pyrazolo[4,3-c]pyridin-3-yl)-2,5-difluorophenyl)-2-fluorobenzenesulfonamide] |  |  | 5.6 nM | 27 nM |
| Nc1ncc([C@H]2CC[C@H](NC3COC3)CC2)c2c1c(-c1ccc(NS(=O)(=O)Cc3ccccc3F)c(F)c1)nn2C1CC1 [Compound A54, N-(4-(4-amino-1-cyclopropyl-7-((1r,4r)-4-(oxetan-3-ylamino)cyclohexyl)-1H-pyrazolo[4,3-c]pyridin-3-yl)-2-fluorophenyl)-1-(2-fluorophenyl)methanesulfonamide] |  |  | 0.9 nM | 9 nM |
| Nc1ncc([C@H]2CC[C@H](NC3COC3)CC2)c2c1c(-c1ccc(NS(=O)(=O)Cc3ccccc3Cl)c(F)c1)nn2C1CC1 [Compound A55, N-(4-(4-amino-1-cyclopropyl-7-((1r,4r)-4-(oxetan-3-ylamino)cyclohexyl)-1H-pyrazolo[4,3-c]pyridin-3-yl)-2-fluorophenyl)-1-(2-chlorophenyl)methanesulfonamide] |  |  | 0.7 nM | 7.2 nM |
| Nc1ncc([C@H]2CC[C@H](NC3COC3)CC2)c2c1c(-c1ccc(NS(=O)(=O)c3ccccc3Cl)c(F)c1)nn2C1CC1 [Compound A56, N-(4-(4-amino-1-cyclopropyl-7-((1r,4r)-4-(oxetan-3-ylamino)cyclohexyl)-1H-pyrazolo[4,3-c]pyridin-3-yl)-2-fluorophenyl)-2-chlorobenzenesulfonamide] |  |  | 3.5 nM | 15 nM |
| COCC(C)N[C@H]1CC[C@H](c2cnc(N)c3c(-c4ccc(NS(=O)(=O)Cc5ccccc5Cl)c(F)c4)nn(C(C)C)c32)CC1 (stereo partly drawn) [Compound A58, N-(4-(4-amino-1-isopropyl-7-((1r,4r)-4-((1-methoxypropan-2-yl)amino)cyclohexyl)-1H-pyrazolo[4,3-c]pyridin-3-yl)-2-fluorophenyl)-1-(2-chlorophenyl)methanesulfonamide] |  |  | 0.6 nM | 4.9 nM |

Continued, values first:

| IC50 (IRE1α [1]) | IC50 ([2]; 4 hour) | IC50 (IRE1α [3]) | IC50 ([2]; Homo sapiens, ARPE-19, 4 h) | Structure (SMILES) |
| --- | --- | --- | --- | --- |
| 1.9 nM | 6.5 nM | 0.8 nM |  | CC(C)n1nc(-c2ccc(NS(=O)(=O)Cc3ccccc3F)c(F)c2)c2c(N)ncc(C3=CCC(NC4COC4)CC3)c21 (single isomer, unassigned) [Compound B2, N-(4-(4-amino-1-isopropyl-7-(4-(oxetan-3-ylamino)cyclohex-1-en-1-yl)-1H-pyrazolo[4,3-c]pyridin-3-yl)-2-fluorophenyl)-1-(2-fluorophenyl)methanesulfonamide] |
| 5.2 nM | 47 nM | 5.1 nM |  | CC(C)n1nc(-c2cc(F)c(NS(=O)(=O)Cc3ccccc3Cl)cc2F)c2c(N)ncc(C3=CCC(NC4COC4)CC3)c21 (single isomer, unassigned) [Compound B6, N-(4-(4-amino-1-isopropyl-7-(4-(oxetan-3-ylamino)cyclohex-1-en-1-yl)-1H-pyrazolo[4,3-c]pyridin-3-yl)-2,5-difluorophenyl)-1-(2-chlorophenyl)methanesulfonamide] |
| 7 nM | 57 nM | 13 nM |  | CC(C)n1nc(-c2cc(F)c(NS(=O)(=O)c3ccccc3Cl)cc2F)c2c(N)ncc(C3=CCC(NC4COC4)CC3)c21 (single isomer, unassigned) [Compound B10, N-(4-(4-amino-1-isopropyl-7-(4-(oxetan-3-ylamino)cyc1ohex-1-en-1-yl)-1H-pyrazolo[4,3-c]pyridin-3-yl)-2,5-difluorophenyl)-2-chlorobenzenesulfonamide] |
| 1.8 nM | 14 nM | 1.6 nM |  | CC(C)n1nc(-c2ccc(NS(=O)(=O)Cc3ccccc3Cl)c(F)c2)c2c(N)ncc(C3=CCC(NC4COC4)CC3)c21 (single isomer, unassigned) [Compound B12, N-(4-(4-amino-1-isopropyl-7-(4-(oxetan-3-ylamino)cyclohex-1-en-1-yl)-1H-pyrazolo[4,3-c]pyridin-3-yl)-2-fluorophenyl)-1-(2-chlorophenyl)methanesulfonamide] |
| 4.1 nM | 22 nM | 2.7 nM |  | CCn1nc(-c2ccc(NS(=O)(=O)Cc3ccccc3F)c(F)c2)c2c(N)ncc(C3=CCC(NC4COC4)CC3)c21 (single isomer, unassigned) [Compound B26, N-(4-(4-amino-1-ethyl-7-(4-(oxetan-3-ylamino)cyclohex-1-en-1-yl)-1H-pyrazolo[4,3-c]pyridin-3-yl)-2-fluorophenyl)-1-(2-fluorophenyl)methanesulfonamide] |
| 5.9 nM | 36 nM |  |  | CC(C)n1nc(-c2ccc(NS(=O)(=O)c3ccccc3F)c(F)c2)c2c(N)ncc(C3=CCC(NC4COC4)CC3)c21 (single isomer, unassigned) [Compound B59, N-(4-(4-amino-1-isopropyl-7-(4-(oxetan-3-ylamino)cyclohex-1-en-1-yl)-1H-pyrazolo[4,3-c]pyridin-3-yl)-2-fluorophenyl)-2-fluorobenzenesulfonamide] |
|  |  | 7 nM | 11 nM | COCC(C)NC1CC=C(c2cnc(N)c3c(-c4ccc(NS(=O)(=O)c5ccccc5Cl)c(F)c4)nn(C(C)C)c23)CC1 (stereo not drawn) [Compound B3] |
|  |  | 82 nM | 740 nM | CCn1nc(-c2cc(F)c(NS(=O)(=O)c3ccccc3F)cc2F)c2c(N)ncc(C3=CCC(NC4COC4)CC3)c21 (stereo not drawn) [Compound B30, N-(4-(4-amino-1-ethyl-7-(4-(oxetan-3-ylamino)cyclohex-1-en-1-yl)-1H-pyrazolo[4,3-c]pyridin-3-yl)-2,5-difluorophenyl)-2-fluorobenzenesulfonamide] |
|  |  | 47 nM | 130 nM | CCn1nc(-c2cc(F)c(NS(=O)(=O)c3ccccc3Cl)cc2F)c2c(N)ncc(C3=CCC(NC4COC4)CC3)c21 (stereo not drawn) [Compound B31, N-(4-(4-amino-1-ethyl-7-(4-(oxetan-3-ylamino)cyclohex-1-en-1-yl)-1H-pyrazolo[4,3-c]pyridin-3-yl)-2,5-difluorophenyl)-2-chlorobenzenesulfonamide] |
|  |  | 21 nM | 340 nM | CCn1nc(-c2cc(F)c(NS(=O)(=O)Cc3ccccc3Cl)cc2F)c2c(N)ncc(C3=CCC(NC4COC4)CC3)c21 (stereo not drawn) [Compound B32, N-(4-(4-amino-1-ethyl-7-(4-(oxetan-3-ylamino)cyclohex-1-en-1-yl)-1H-pyrazolo[4,3-c]pyridin-3-yl)-2,5-difluorophenyl)-1-(2-chlorophenyl)methanesulfonamide] |
|  |  | 20 nM | 74 nM | CCn1nc(-c2ccc(NS(=O)(=O)c3cc(OC)ccc3Cl)c(F)c2)c2c(N)ncc(C3=CCC(NC4COC4)CC3)c21 (stereo not drawn) [Compound B37, N-(4-(4-amino-1-ethyl-7-(4-(oxetan-3-ylamino)cyclohex-1-en-1-yl)-1H-pyrazolo[4,3-c]pyridin-3-yl)-2-fluorophenyl)-2-chloro-5-methoxybenzenesulfonamide] |
|  |  | 79 nM | 240 nM | CC(C)n1nc(-c2cc(F)c(NS(=O)(=O)c3ccccc3F)cc2F)c2c(N)ncc(C3=CCC(NC4COC4)CC3)c21 (stereo not drawn) [Compound B60, N-(4-(4-amino-1-isopropyl-7-(4-(oxetan-3-ylamino)cyclohex-1-en-1-yl)-1H-pyrazolo[4,3-c]pyridin-3-yl)-2,5-difluorophenyl)-2-fluorobenzenesulfonamide] |
|  |  | 16 nM | 21 nM | CC(C)n1nc(-c2ccc(NS(=O)(=O)c3ccccc3Cl)c(F)c2)c2c(N)ncc(C3=CCC(NCCF)CC3)c21 (stereo not drawn) [Compound B63, N-(4-(4-amino-7-(4-((2-fluoroethyl)amino)cyclohex-1-en-1-yl)-1-isopropyl-1H-pyrazolo[4,3-c]pyridin-3-yl)-2-fluorophenyl)-2-chlorobenzenesulfonamide] |
